In brackets after ≈: the same amount, converted by molar mass.
Test system: Staphylococcus aureus
Assay: Antibacterial activity against Staphylococcus aureus subsp. aureus ATCC 29213 assessed as bacterial growth inhibition incubated for 24 hrs by Reed-Muench method
Type: functional

Structure (SMILES) | MIC50 [µg/mL]
CC1(C)S[C@@H]2[C@H](NC(=O)Cc3ccccc3)C(=O)N2[C@H]1C(=O)[O-].[Na+] [PENICILLIN G SODIUM] | 0.53
CC(C)=CCc1cc(C(=O)O[C@H](C)[C@@](C)(O)C(=O)O)cc(CC=C(C)C)c1O | 23 (≈ 58.9 µM)
CC(C)=CCc1cc(C(=O)O[C@@H]2CC(C(=O)O)=C[C@@H](O)[C@H]2O)cc2c1OC(C)(C)C=C2 | 56 (≈ 131 µM)
C=C(C)C(O)Cc1cc(C(=O)O)cc(CC=C(C)C)c1O (stereo not drawn) | 89 (≈ 307 µM)
CC(C)=CCc1cc(C(=O)O)cc2c1OC(C)(C)CC2=O | 93 (≈ 323 µM)
C=C(C)C(O)Cc1cc(C(=O)O)cc2c1OC(C)(C)C=C2 (stereo not drawn) | 81 (≈ 281 µM)
CC(C)=CCc1cc(C(=O)O)cc2c1OC(C)(C)C=C2 | 15 (≈ 55.1 µM)
CC(C)=CCc1cc(C(=O)O)cc(CC=C(C)C)c1O | 7.6 (≈ 27.7 µM)
